{"source": "patent US11697833B2", "about": "“Antimicrobial susceptibility testing device and method for use with portable electronic device” (THE REGENTS OF THE UNIVERSITY OF CALIFORNIA, priority 2016, dated 2023)", "tested_on": "Klebsiella pneumoniae", "assay": "Broth microdilution antimicrobial susceptibility testing (AST) of patient isolates, 96-well plate read for turbidity", "assay_type": "cell-based", "conditions": "clinical patient isolate plates, 24 hours at 37° C, plate ID 1 (AM), 5 (A/S), 8 (MPM); for Diagnostician Decision (drug susceptibility interpretation): expert diagnostician visual reading (gold standard); for Automated System Decision (drug susceptibility interpretation): mobile phone-based AST plate reader, misdiagnosed cases", "text": "To determine whether a particular well 22 contains sufficient turbidity or not, a threshold-based approach is used to determine the cut-off transmittance value for each well 22. As the turbidity increases, the light transmittance through the well decreases. This operation is illustrated as operation 230 in FIGS. 4 and 5. In particular, thresholding is applied to average normalized well intensities of sample-containing wells to determine whether a particular well 22 is classified as “turbid” or “not turbid.” To choose an accurate threshold value for each well 22, the normalized transmittance values of wells 22 with no turbidity are extracted from a training set of blank reference plates 20 (i.e., plates with drugs but no microbes). For example, sixty (60) such plates that are blanks can be imaged to determine the mean transmittance at each well 22. […] In one embodiment, from this set of normalized transmittance values from wells 22 with no turbidity, a threshold of two times the standard deviation below the mean of that particular well 22 is used to determine whether a given test or sample-containing well 22 is statistically likely to have microbial growth represented by turbidity. Those wells 22 that have an averaged, normalized intensity level that is lower than two times the standard deviation below the mean “not turbid” value are classified as “turbid” while wells 22 that don't meet that criteria are classified as “not turbid.” Of course, other measures may be used for defining the cutoff or threshold. For example, fractional standard deviation may also be used for a cutoff or threshold. In addition, the threshold could also include a numerical cutoff of intensity or other multiple of the standard deviation.\nWith reference to FIG. 3, after the wells 22 are classified as “turbid” or “not turbid,” the software 112 generates MIC values and susceptibility characterizations for the drug(s) on the AST plate 20. For a given type of AST plate 20 (i.e., Gram-negative or Gram-positive), the MIC value for each drug is determined by finding the lowest concentration of drug in a drug-specific set of wells 22 that contains no turbidity. More specifically, the MIC value is based on the adjacent, well 22 that is classified as not turbid as this well represents the lowest concentration of antibiotic that prevented bacterial growth (i.e. the MIC). Depending on the selected microbe of interest, drug susceptibility interpretations are automatically made by the software 112 based on the MIC for each drug. FIG. 7 illustrates the layout of a map or table 114 for the AST plate 20 with susceptibility characterizations for each drug at different concentration levels. The map or table 114 with susceptibility characterizations for each drug at different concentration levels may be stored in a database (e.g., database 109 or other local storage device) as a look-up table or the like. In some embodiments, the map or table 114 for each different bacterium may be stored in the database 109 or local storage device. For example, in looking at FIG. 7 with the example of the drug ampicillin (AM), various concentrations (μg/ml) of this drug is present within wells B1, C1, D1, E1 along with a growth medium. If wells B1 and C1 were classified as turbid while wells D1 and E1 were classified as not turbid, the MIC reading would be 16 μg/ml (e.g., looking at concentration in well D1). Likewise, the susceptibility characterization would be classified as “indeterminate” using the map or table 114. […]", "data": [{"compound": "CC1(C)S[C@@H]2[C@H](NC(=O)[C@H](N)c3ccccc3)C(=O)N2[C@H]1C(=O)O", "note": "[AM, Ampicillin]", "values": [{"measurement": "Diagnostician Decision (drug susceptibility interpretation)", "value": "Indeterminate"}, {"measurement": "Automated System Decision (drug susceptibility interpretation)", "value": "Resistant"}]}, {"compound": "C[C@@H](O)[C@H]1C(=O)N2C(C(=O)O)=C(S[C@@H]3CN[C@H](C(=O)N(C)C)C3)[C@H](C)[C@H]12", "note": "[MPM, Meropenem]", "values": [{"measurement": "Diagnostician Decision (drug susceptibility interpretation)", "value": "Susceptible"}, {"measurement": "Automated System Decision (drug susceptibility interpretation)", "value": "Resistant"}]}, {"compound": "Ampicillin-Sulbactam [A/S]", "values": [{"measurement": "Diagnostician Decision (drug susceptibility interpretation)", "value": "Indeterminate"}, {"measurement": "Automated System Decision (drug susceptibility interpretation)", "value": "Resistant"}]}]}
